Experimental data published in patent US20260226071A1, “2, 4-DIANILINOPYRIMIDINE-BASED AURORA-A KINASE SELECTIVE DEGRADATION INDUCING COMPOUNDS” (UPPTHERA, INC., priority 2023, published 2026).

Assays:
Aurora kinase A (AURKA) = biological target: T1, Aurora kinase A (AURKA) (Homo sapiens, UniProt O14965); experiment: Luciferase assay for AURKA in HeLa LgBit (AURKA-HiBit KI) cell line; assay type: cell-based; conditions: HeLa LgBit (AURKA-HiBit KI) cells, measured after 12 hours
T1 construct: endogenous in cells; host or cells: HeLa LgBit (AURKA-HiBit KI), CRISPR/Cas9 knock-in at the endogenous AURKA locus
T1 sequence (O14965 1-403): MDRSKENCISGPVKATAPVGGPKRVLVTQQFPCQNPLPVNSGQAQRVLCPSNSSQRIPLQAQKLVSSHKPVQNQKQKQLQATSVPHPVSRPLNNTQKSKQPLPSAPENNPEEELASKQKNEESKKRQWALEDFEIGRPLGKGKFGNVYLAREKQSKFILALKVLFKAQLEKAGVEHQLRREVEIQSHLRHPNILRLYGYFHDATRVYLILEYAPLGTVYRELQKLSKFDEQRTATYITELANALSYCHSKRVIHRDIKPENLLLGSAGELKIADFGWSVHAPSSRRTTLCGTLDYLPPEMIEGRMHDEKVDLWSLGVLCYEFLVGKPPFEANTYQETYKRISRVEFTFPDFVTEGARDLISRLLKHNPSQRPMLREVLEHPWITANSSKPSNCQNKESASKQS
Method in brief: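 HeLa cells stably expressing LgBit, with HiBit knocked in at the C-terminus of endogenous AURKA; 3×10^4 cells seeded, 18 h, then Endurazine substrate 2 h. Compounds tested at 10 nM or 100 nM; luminescence read at 470-480 nm after 12 h as real-time read-out.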

NCI-H446 cell line = experiment: Cell viability assay for NCI-H446 cell line; assay type: cell-based; conditions: Homo sapiens, NCI-H446, 120 h; H446 cells, 5 days culture, EZ-Cytox; read-out: IC50 value (Level)
Excerpt: The NCI-H446 (hereafter H446) cell lines were provided from American Type Culture Collection (ATCC). For cell culture, RPMI medium 1640 (Gibco, Cat. No. 22400-089; Lot. No. 2522717), FBS (Gibco, Cat. No. 16000-044; Lot. No. 2716756P), Penicillin/Streptomycin (PS) (Gibco, Cat. No. 15140-122; Lot. No. 2585636), 75T cell culture flask (SPL, Cat. No. 70075), 96 well cell culture plate (SPL, Cat. No. 30096), PBS pH 7.4 (Gibco, Cat. No. 10010-023; Lot. No. 2561466), TrypLE™ Express (Gibco, Cat. No. 12605-010; Lot. No. 2492811), counting chamber (hematocytometer) (Hirschmann, Cat. No. 8100204) and 0.4% Trypan Blue solution (DYNEBIO, Cat. No. CBT3710; Lot. No. 20231017) were used. Cells were cultured in RPMI 1640 medium supplemented with 10% FBS and 1% PS and incubated at 37° C., 5% CO2 condition in CO2 incubator (ThermoScientific, Cat. No. 4111).
For experiment, the present compounds were fully dissolved in DMSO (Sigma-Aldrich Cat. No. D2438, Lot. No. RNBL7287.
In each well of 96-well cell culture plate, […] cells of H446 cell lines were seeded in 150 μl of total medium volume. After 24 hours of cell seeding, the present compounds were treated.
The present compounds were each diluted 3-folds from the highest concentration of 1000 nM to the lowest concentration of 0.15 nM. The compound was added to each well to make the total volume of […] and the cells were cultured for 5 days in CO2 incubator (Thermo Fisher Science, Cat. No. 4111).
Thereafter, 20 μl of EZ-Cytox (DOGEN, Cat. NO. EZ-3000, Lot. No. DLS2308) was added to each well and the cells were cultured for 4 hours at the same condition in CO2 incubator. After culture, the absorbance of the sample was measured by setting the wavelength of a plate reader (BMG Labtech, CLARIOstar Plus) to […]. The samples were shaked for 2 minutes in the plate reader before measurement.

Row | SMILES | luminescence value (Level) (Aurora kinase A (AURKA); 10 nM compound) | luminescence value (Level) (Aurora kinase A (AURKA); 100 nM compound) | IC50 (NCI-H446 cell line) [nM]
1 | O=C1CCC(c2ccc(N3CCC(N4CCC5(CC4)CC(NC(=O)c4ccc(Nc6ncc(F)c(Nc7ccc(C(=O)Nc8ccccc8Cl)cc7)n6)cc4)C5)CC3)c(F)c2)C(=O)N1 (stereo not drawn) [Compound 21, N-(2-chlorophenyl)-4-((2-((4-((7-(1-(4-(2,6-dioxopiperidin-3-yl)-2-fluorophenyl)piperidin-4-yl)-7-azaspiro[3.5]nonan-2-yl)carbamoyl)phenyl)amino)-5-fluoropyrimidin-4-yl)amino)benzamide] | B (B is 0.3 to 0.5) | A (A is <0.2) | < 50
2 | O=C1CCC(c2ccc(N3CCC(N4CCC5(CC4)CC(NC(=O)Cc4ccc(Nc6ncc(F)c(Nc7ccc(C(=O)Nc8ccccc8Cl)cc7)n6)cc4)C5)CC3)c(F)c2)C(=O)N1 (stereo not drawn) [Compound 22, N-(2-chlorophenyl)-4-((2-((4-(2-((7-(1-(4-(2,6-dioxopiperidin-3-yl)-2-fluorophenyl)piperidin-4-yl)-7-azaspiro[3.5]nonan-2-yl)amino)-2-oxoethyl)phenyl)amino)-5-fluoropyrimidin-4-yl)amino)benzamide] | A (A is <0.3) | A (A is <0.2) | 100 to 150
3 | O=C1CCC(c2ccc(N3CCC(CN4CCC5(CC4)CC(NC(=O)c4ccc(Nc6ncc(F)c(Nc7ccc(C(=O)Nc8ccccc8Cl)cc7)n6)cc4)C5)CC3)c(F)c2)C(=O)N1 (stereo not drawn) [Compound 23, N-(2-chlorophenyl)-4-((2-((4-((7-((1-(4-(2,6-dioxopiperidin-3-yl)-2-fluorophenyl)piperidin-4-yl)methyl)-7-azaspiro[3.5]nonan-2-yl)carbamoyl)phenyl)amino)-5-fluoropyrimidin-4-yl)amino)benzamide] | B (B is 0.3 to 0.5) | A (A is <0.2) | < 50
4 | O=C1CCC(Nc2ccc(N3CCC(CN4CCN(C(=O)Cc5ccc(Nc6ncc(F)c(Nc7ccc(C(=O)Nc8ccccc8Cl)cc7)n6)cc5)CC4)CC3)cc2)C(=O)N1 (stereo not drawn) [Compound 24, N-(2-chlorophenyl)-4-((2-((4-(2-(4-((1-(4-((2,6-dioxopiperidin-3-yl)amino)phenyl)piperidin-4-yl)methyl)piperazin-1-yl)-2-oxoethyl)phenyl)amino)-5-fluoropyrimidin-4-yl)amino)benzamide] | B (B is 0.3 to 0.5) | A (A is <0.2) | < 50
5 | O=C1CCC(Nc2ccc(N3CCN(C[C@H]4CC[C@H](NC(=O)c5ccc(Nc6ncc(F)c(Nc7ccc(C(=O)Nc8ccccc8Cl)cc7)n6)cc5)CC4)CC3)cc2)C(=O)N1 (stereo partly drawn) [Compound 26, N-(2-chlorophenyl)-4-((2-((4-(((1r,4r)-4-((4-(4-((2,6-dioxopiperidin-3-yl)amino)phenyl)piperazin-1-yl)methyl)cyclohexyl)carbamoyl)phenyl)amino)-5-fluoropyrimidin-4-yl)amino)benzamide] | B (B is 0.3 to 0.5) | B (B is 0.2 to 0.4) | < 50
6 | O=C1CCC(Nc2ccc(N3CCN(CC4CC45CCN(C(=O)c4ccc(Nc6ncc(F)c(Nc7ccc(C(=O)Nc8ccccc8Cl)cc7)n6)cc4)CC5)CC3)cc2)C(=O)N1 (stereo not drawn) [Compound 30, N-(2-chlorophenyl)-4-((2-((4-(1-((4-(4-((2,6-dioxopiperidin-3-yl)amino)phenyl)piperazin-1-yl)methyl)-6-azaspiro[2.5]octane-6-carbonyl)phenyl)amino)-5-fluoropyrimidin-4-yl)amino)benzamide] | B (B is 0.3 to 0.5) | A (A is <0.2) | < 50
7 | O=C1CCC(Nc2ccc(N3CCC(CN4CCC5(CC4)CCN(C(=O)c4ccc(Nc6ncc(F)c(Nc7ccc(C(=O)Nc8ccccc8Cl)cc7)n6)cc4)C5)CC3)cc2)C(=O)N1 (stereo not drawn) [Compound 33, N-(2-chlorophenyl)-4-[[2-[4-[8-[[1-[4-[(2,6-dioxo-3-piperidyl)amino]phenyl]-4-piperidyl]methyl]-2,8-diazaspiro[4.5]decane-2-carbonyl]anilino]-5-fluoro-pyrimidin-4-yl]amino]benzamide] | B (B is 0.3 to 0.5) | A (A is <0.2) | 100 to 150
8 | O=C1CCC(Nc2ccc(N3CC(CN4CC5CN(C(=O)c6ccc(Nc7ncc(F)c(Nc8ccc(C(=O)Nc9ccccc9Cl)cc8)n7)cc6)CC5C4)C3)cc2)C(=O)N1 (stereo not drawn) [Compound 35, N-(2-chlorophenyl)-4-((2-((4-(5-((1-(4-((2,6-dioxopiperidin-3-yl)amino)phenyl)azetidin-3-yl)methyl)octahydropyrrolo[3,4-c]pyrrole-2-carbonyl)phenyl)amino)-5-fluoropyrimidin-4-yl)amino)benzamide] | B (B is 0.3 to 0.5) | B (B is 0.2 to 0.4) | 150 to 200
9 | O=C1CCC(Nc2ccc(N3CC(N4CCc5cc(NC(=O)c6ccc(Nc7ncc(F)c(Nc8ccc(C(=O)Nc9ccccc9Cl)cc8)n7)cc6)ccc5C4)C3)cc2)C(=O)N1 (stereo not drawn) [Compound 36, N-(2-chlorophenyl)-4-((2-((4-((2-(1-(4-((2,6-dioxopiperidin-3-yl)amino)phenyl)azetidin-3-yl)-1,2,3,4-tetrahydroisoquinolin-6-yl)carbamoyl)phenyl)amino)-5-fluoropyrimidin-4-yl)amino)benzamide] | B (B is 0.3 to 0.5) | A (A is <0.2) | 100 to 150
10 | CN(CC1CCN(c2ccc(NC3CCC(=O)NC3=O)cc2)CC1)C[C@H]1CC[C@H](NC(=O)c2ccc(Nc3ncc(F)c(Nc4ccc(C(=O)Nc5ccccc5Cl)cc4)n3)cc2)CC1 (stereo partly drawn) [Compound 38, N-(2-chlorophenyl)-4-[[2-[4-[[4-[[[1-[4-[(2,6-dioxo-3-piperidyl)amino]phenyl]-4-piperidyl]methyl-methyl-amino]methyl]cyclohexyl]carbamoyl]anilino]-5-fluoro-pyrimidin-4-yl]amino]benzamide] | B (B is 0.3 to 0.5) | B (B is 0.2 to 0.4) | > 200
11 | O=C1CCC(Nc2ccc(N3CCN(CCC4CCN(NC(=O)c5ccc(Nc6ncc(F)c(Nc7ccc(C(=O)Nc8ccccc8Cl)cc7)n6)cc5)CC4)CC3)cc2)C(=O)N1 (stereo not drawn) [Compound 43, N-(2-chlorophenyl)-4-((2-((4-((4-(2-(4-(4-((2,6-dioxopiperidin-3-yl)amino)phenyl)piperazin-1-yl)ethyl)piperidin-1-yl)carbamoyl)phenyl)amino)-5-fluoropyrimidin-4-yl)amino)benzamide] | A (A is <0.3) | A (A is <0.2) | < 50
12 | CN(c1ccc(N2CCC(CN3CCN(C(=O)Cc4ccc(Nc5ncc(F)c(Nc6ccc(C(=O)Nc7ccccc7Cl)cc6)n5)cc4)CC3)CC2)cc1)C1CCC(=O)NC1=O (stereo not drawn) [Compound 44, N-(2-chlorophenyl)-4-((2-((4-(2-(4-((1-(4-((2,6-dioxopiperidin-3-yl)(methyl)amino)phenyl)piperidin-4-yl)methyl)piperazin-1-yl)-2-oxoethyl)phenyl)amino)-5-fluoropyrimidin-4-yl)amino)benzamide] | B (B is 0.3 to 0.5) | A (A is <0.2) | 100 to 150
